According to patent US9365522B2, “Pyrazole amide derivative” (AMGEN INC., priority 2015, dated 2016):

These compounds were tested against T1, human RORγ-LBD (Homo sapiens, UniProt P51449) (assay: ROR gamma coactivator peptide recruitment Alphascreen assay (RORγ-LBD binding to GRIP1 coactivator peptide)). Settings: 5 nM human RORγ-LBD, 30 nM 7-β-hydroxycholesterol, 50 nM biotinylated GRIP1 coactivator peptide, overnight incubation at room temperature; read-out: result (pIC50, RORγ coactivator peptide recruitment Alphascreen assay) (converted).
T1 construct: made in house; host or cells: E. coli (BL-21)
T1 sequence (P51449 262-518): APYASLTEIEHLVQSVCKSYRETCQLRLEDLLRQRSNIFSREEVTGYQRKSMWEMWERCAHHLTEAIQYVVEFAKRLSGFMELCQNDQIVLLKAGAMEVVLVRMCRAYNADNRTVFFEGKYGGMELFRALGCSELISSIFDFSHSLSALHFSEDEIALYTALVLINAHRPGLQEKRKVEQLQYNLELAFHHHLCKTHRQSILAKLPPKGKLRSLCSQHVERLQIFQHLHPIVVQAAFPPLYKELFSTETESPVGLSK
Type: biochemical
Summary of the method: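 Alphascreen proximity read-out after overnight room-temperature incubation, yielding pIC50 from 1-in-2 compound series (2.5% DMSO final). Mixture: 50 nM biotin-GRIP1 peptide, 30 nM 7-β-hydroxycholesterol agonist, 5 nM recombinant 6×His:Flag human RORγ-LBD (aa 262-518), 50 mM HEPES pH 7.4.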

Structure (SMILES)	IC50 [nM]
Cc1cc(Cl)c(C(=O)CN(C(=O)c2cnn([C@H]3CC[C@H](CC(=O)O)CC3)c2C(F)(F)F)[C@H]2C[C@@H]3[C@H](C2)C3(C)C)c(Cl)c1 [Example 750, (trans-4-(4-((2-(2,6-dichloro-4-methylphenyl)-2-oxoethyl)((1R,3r,5S)-6,6-dimethylbicyclo[3.1.0]hex-3-yl)carbamoyl)-5-(trifluoromethyl)-1H-pyrazol-1-yl)cyclohexyl)acetic acid]	1.58
CC1(C)C[C@H](CN(CC(=O)c2c(Cl)cccc2Cl)C(=O)c2cnn([C@H]3CC[C@](C)(C(=O)O)CC3)c2C(F)(F)F)O1 [Example 601, trans-4-(4-((2-(2,6-dichlorophenyl)-2-oxoethyl)(((2R)-4,4-dimethyl-2-oxetanyl)methyl)carbamoyl)-5-(trifluoromethyl)-1H-pyrazol-1-yl)-1-methylcyclohexanecarboxylic acid]	42.7
CC1(C)CC(CN(CC(=O)c2c(Cl)cccc2Cl)C(=O)c2cnn([C@H]3CC[C@@](C)(C(=O)O)CC3)c2C(F)(F)F)C1 [Example 672, trans-4-(4-((2-(2,6-dichlorophenyl)-2-oxoethyl)((3,3-dimethylcyclobutyl)methyl)carbamoyl)-5-(trifluoromethyl)-1H-pyrazol-1-yl)-1-methylcyclohexanecarboxylic acid]	2.04
CC1(C)CC[C@H](CN(CC(=O)c2c(Cl)cncc2Cl)C(=O)c2cnn([C@H]3CC[C@](C)(C(=O)O)CC3)c2C(F)(F)F)O1 [Example 655, trans-4-(4-((2-(3,5-dichloro-4-pyridinyl)-2-oxoethyl)(((2R)-5,5-dimethyltetrahydro-2-furanyl)methyl)carbamoyl)-5-(trifluoromethyl)-1H-pyrazol-1-yl)-1-methylcyclohexanecarboxylic acid]	26.9
C[C@@H]1C[C@@H](n2ncc(C(=O)N3CC4(CC=CC4)C[C@@H]3Cc3c(Cl)cncc3Cl)c2C(F)(F)F)CC[C@@H]1C(=O)O [Example 809, (1S,2R,4S)-4-(4-(((3R)-3-((3,5-dichloro-4-pyridinyl)methyl)-2-azaspiro[4.4]non-7-en-2-yl)carbonyl)-5-(trifluoromethyl)-1H-pyrazol-1-yl)-2-methylcyclohexanecarboxylic acid]	17.8
Cc1cc(Cl)c(C(=O)CN(C(=O)c2cnn([C@H]3CC[C@](C)(C(=O)O)CC3)c2C(F)(F)F)[C@H]2C[C@@H]3CC[C@H]2C3)c(Cl)c1 [Example 678, trans-4-(4-((1S,2S,4R)-bicyclo[2.2.1]hept-2-yl(2-(2,6-dichloro-4-methylphenyl)-2-oxoethyl)carbamoyl)-5-(trifluoromethyl)-1H-pyrazol-1-yl)-1-methylcyclohexanecarboxylic acid]	1.07
C[C@]1(C(=O)O)CC[C@H](n2ncc(C(=O)N(CC(=O)c3c(Cl)cccc3Cl)[C@@H]3CCC34CCC4)c2C(F)(F)F)CC1 [Example 639, trans-4-(4-((2-(2,6-dichlorophenyl)-2-oxoethyl)((1R)-spiro[3.3]hept-1-yl)carbamoyl)-5-(trifluoromethyl)-1H-pyrazol-1-yl)-1-methylcyclohexanecarboxylic acid]	57.5
Cc1cc(Cl)c(C(=O)CN(C[C@@H]2CCC(C)(C)O2)C(=O)c2cnn([C@H]3CC[C@](C)(C(=O)O)CC3)c2C(F)(F)F)c(Cl)c1 [Example 783, trans-4-(4-((2-(2,6-dichloro-4-methylphenyl)-2-oxoethyl)(((2S)-5,5-dimethyltetrahydro-2-furanyl)methyl)carbamoyl)-5-(trifluoromethyl)-1H-pyrazol-1-yl)-1-methylcyclohexanecarboxylic acid]	3.89
CC1(C)[C@@H]2C[C@H](N(CC(=O)c3c(Cl)cccc3Cl)C(=O)c3cnn([C@H]4CC[C@H](C(=O)O)CC4)c3C(F)(F)F)C[C@@H]21 [Example 610, cis-4-(4-((2-(2,6-dichlorophenyl)-2-oxoethyl)((1R,3r,5S)-6,6-dimethylbicyclo[3.1.0]hex-3-yl)carbamoyl)-5-(trifluoromethyl)-1H-pyrazol-1-yl)cyclohexanecarboxylic acid]	12.3
C[C@@H]1CC[C@@H](CN(CC(=O)c2c(Cl)cncc2Cl)C(=O)c2cnn([C@H]3CC[C@](C)(C(=O)O)CC3)c2C(F)(F)F)O1 [Example 706, trans-4-(4-((2-(3,5-dichloro-4-pyridinyl)-2-oxoethyl)(((2S,5R)-5-methyltetrahydro-2-furanyl)methyl)carbamoyl)-5-(trifluoromethyl)-1H-pyrazol-1-yl)-1-methylcyclohexanecarboxylic acid]	32.4
CC1(C)CC(CN(CCc2c(Cl)cncc2Cl)C(=O)c2cnn([C@H]3CC[C@H](C(=O)O)CC3)c2C(F)(F)F)C1 [Example 553, trans-4-(4-((2-(3,5-dichloro-4-pyridinyl)ethyl)((3,3-dimethylcyclobutyl)methyl)carbamoyl)-5-(trifluoromethyl)-1H-pyrazol-1-yl)cyclohexanecarboxylic acid]	2.75
Cc1cc(C)n(CCN(Cc2ccc(Cl)cc2)C(=O)c2cnn([C@H]3CC[C@H](C(=O)O)CC3)c2C(F)(F)F)c(=O)c1 [Example 544, trans-4-(4-((4-chlorobenzyl)(2-(4,6-dimethyl-2-oxo-1(2H)-pyridinyl)ethyl)carbamoyl)-5-(trifluoromethyl)-1H-pyrazol-1-yl)cyclohexanecarboxylic acid]	3630
CC1(CN(CC(=O)c2c(Cl)cncc2Cl)C(=O)c2cnn([C@H]3CC[C@](C)(C(=O)O)CC3)c2C(F)(F)F)CC1 [Example 577, trans-4-(4-((2-(3,5-dichloro-4-pyridinyl)-2-oxoethyl)((1-methylcyclopropyl)methyl)carbamoyl)-5-(trifluoromethyl)-1H-pyrazol-1-yl)-1-methylcyclohexanecarboxylic acid]	11.7
COc1cccc(F)c1C(=O)CN(CC1(F)CCCC1)C(=O)c1cnn([C@H]2CC[C@](C)(C(=O)O)CC2)c1C(F)(F)F [Example 608, trans-4-(4-(((1-fluorocyclopentyl)methyl)(2-(2-fluoro-6-methoxyphenyl)-2-oxoethyl)carbamoyl)-5-(trifluoromethyl)-1H-pyrazol-1-yl)-1-methylcyclohexanecarboxylic acid]	123
CC(C)CCN(CC(=O)c1c(Cl)cncc1Cl)C(=O)c1cnn([C@H]2CC[C@](C)(C(=O)O)CC2)c1C(F)(F)F [Example 700, trans-4-(4-((2-(3,5-dichloro-4-pyridinyl)-2-oxoethyl)(3-methylbutyl)carbamoyl)-5-(trifluoromethyl)-1H-pyrazol-1-yl)-1-methylcyclohexanecarboxylic acid]	13.2

The next lines start with the values.

IC50 [nM]	Structure (SMILES)
100	C[C@@H]1C[C@@H](n2ncc(C(=O)N(CC(=O)c3c(Cl)cncc3Cl)C[C@H]3CCCO3)c2C(F)(F)F)CC[C@@H]1C(=O)O [Example 820, (1S,2R,4S)-4-(4-((2-(3,5-dichloro-4-pyridinyl)-2-oxoethyl)((2R)-tetrahydro-2-furanylmethyl)carbamoyl)-5-(trifluoromethyl)-1H-pyrazol-1-yl)-2-methylcyclohexanecarboxylic acid]
468	C[C@@H]1C[C@@H](n2ncc(C(=O)N(CCc3c(Cl)c[nH]c(=O)c3Cl)CC(C)(C)C)c2C(F)(F)F)CC[C@@H]1C(=O)O [Example 886, (1S,2R,4S)-4-(4-((2-(3,5-dichloro-2-oxo-1,2-dihydro-4-pyridinyl)ethyl)(2,2-dimethylpropyl)carbamoyl)-5-(trifluoromethyl)-1H-pyrazol-1-yl)-2-methylcyclohexane carboxylic acid]
5.89	C[C@H]1C[C@@](C)(C(=O)O)CCC1n1ncc(C(=O)N(CC(=O)c2c(Cl)cncc2Cl)CC(C)(C)C)c1C(F)(F)F (single isomer, unassigned) [Example 843]
1.78	C[C@@H]1C[C@@H](n2ncc(C(=O)N(CC(=O)c3c(Cl)cccc3Cl)CC3(C(F)(F)F)CC3)c2C(F)(F)F)CC[C@@H]1C(=O)O [Example 811, (1S,2R,4S)-4-(4-((2-(2,6-dichlorophenyl)-2-oxoethyl)((1-(trifluoromethyl)cyclopropyl)methyl)carbamoyl)-5-(trifluoromethyl)-1H-pyrazol-1-yl)-2-methylcyclohexanecarboxylic acid]
9.55	C[C@@H]1C[C@@H](n2ncc(C(=O)N(CC(=O)c3c(Cl)cncc3Cl)CC(C)(C)F)c2C(F)(F)F)CC[C@@H]1C(=O)O [Example 829, (1S,2R,4S)-4-(4-((2-(3,5-dichloro-4-pyridinyl)-2-oxoethyl)(2-fluoro-2-methylpropyl)carbamoyl)-5-(trifluoromethyl)-1H-pyrazol-1-yl)-2-methylcyclohexanecarboxylic acid]
38	C[C@@H]1C[C@H](n2ncc(C(=O)N(CC(=O)c3c(Cl)cncc3Cl)CC(C)(C)C)c2C(F)(F)F)CC[C@]1(C)C(=O)O [Example 862, (1S,3S,4R)-4-(4-((2-(3,5-dichloro-4-pyridinyl)-2-oxoethyl)(2,2-dimethylpropyl)carbamoyl)-5-(trifluoromethyl)-1H-pyrazol-1-yl)-1,2-dimethylcyclohexanecarboxylic acid]
741	CC(C)(C)CN(CCc1c(Cl)c[nH]c(=O)c1Cl)C(=O)c1cnn([C@H]2CC[C@](C)(C(=O)O)CC2)c1C(F)(F)F [Example 885, trans-4-(4-((2-(3,5-dichloro-2-oxo-1,2-dihydro-4-pyridinyl)ethyl)(2,2-dimethylpropyl)carbamoyl)-5-(trifluoromethyl)-1H-pyrazol-1-yl)-1-methylcyclohexanecarboxylic acid]
